Laboratory results published in ChEMBL document CHEMBL4400520, “Benzofuran-isatin-imine hybrids tethered via different length alkyl linkers: Design, synthesis and in vitro evaluation of anti-tubercular and anti-bacterial activities as well as cytotoxicity” (Eur J Med Chem, 2019).
Values after ≈ are worked out from the molar mass of the structure shown.

Tests used:
Proteus mirabilis = assay: Antibacterial activity against Proteus mirabilis; type: functional
Klebsiella pneumoniae = assay: Antibacterial activity against Klebsiella pneumoniae; type: functional
[1] = system: Acinetobacter calcoaceticus; assay: Antibacterial activity against Acinetobacter calcoaceticus; type: functional
[2] = Selectivity index, ratio of CC50 for African green monkey Vero cells to MIC for Mycobacterium tuberculosis H37Rv; type: toxicity; details: read-out: Selectivity Index
Enterococcus faecalis = assay: Antibacterial activity against Enterococcus faecalis; type: functional
Enterobacter cloacae = assay: Antibacterial activity against Enterobacter cloacae; type: functional
[3] = system: Mycobacterium tuberculosis; assay: Antitubercular activity against Mycobacterium tuberculosis H37Rv; type: functional
Escherichia coli = assay: Antibacterial activity against Escherichia coli; type: functional
Citrobacter freundii = assay: Antibacterial activity against Citrobacter freundii; type: functional
[4] = system: Staphylococcus epidermidis; assay: Antibacterial activity against methicillin-sensitive Staphylococcus epidermidis; type: functional
Pseudomonas aeruginosa = assay: Antibacterial activity against Pseudomonas aeruginosa ATCC 27853; type: functional
Staphylococcus aureus [5] = assay: Antibacterial activity against methicillin-sensitive Staphylococcus aureus; type: functional
Staphylococcus aureus [6] = assay: Antibacterial activity against methicillin-resistant Staphylococcus aureus; type: functional
[7] = Cytotoxicity against African green monkey Vero cells assessed as reduction in cell viability after 72 hrs by MTT assay; type: cell-based; details: chlorocebus sabaeus, Vero cells
Klebsiella aerogenes = assay: Antibacterial activity against Enterobacter aerogenes; type: functional
[8] = system: Staphylococcus epidermidis; assay: Antibacterial activity against methicillin-resistant Staphylococcus epidermidis; type: functional
Enterococcus faecium = assay: Antibacterial activity against Enterococcus faecium; type: functional

Row | Compound | MIC90 (Proteus mirabilis) [µg/mL] | MIC90 (Klebsiella pneumoniae) [µg/mL] | MIC90 [1] [µg/mL] | selectivity ratio [2] | MIC90 (Enterococcus faecalis) [µg/mL] | MIC90 (Enterobacter cloacae) [µg/mL] | MIC [3] [µg/mL] | MIC90 (Escherichia coli) [µg/mL] | MIC90 (Citrobacter freundii) [µg/mL] | MIC90 [4] [µg/mL] | MIC90 (Pseudomonas aeruginosa) [µg/mL] | MIC90 (Staphylococcus aureus [5]) [µg/mL] | MIC90 (Staphylococcus aureus [6]) [µg/mL] | CC50 at 72 h [7] [µg/mL] | MIC90 (Klebsiella aerogenes) [µg/mL] | MIC90 [8] [µg/mL] | MIC90 (Enterococcus faecium) [µg/mL]
1 | CCOC(=O)c1c(-c2ccc(OC)cc2)oc2ccc(OCCCN3C(=O)/C(=N\OC)c4cc(OC)ccc43)cc12 | 0.25 (≈ 0.448 µM) | 1 (≈ 1.79 µM) | 4 (≈ 7.16 µM) | > 8000 | 1 (≈ 1.79 µM) | 0.25 (≈ 0.448 µM) | < 0.016 | 0.25 (≈ 0.448 µM) | 0.5 (≈ 0.895 µM) | 0.25 (≈ 0.448 µM) | 1 (≈ 1.79 µM) | 4 (≈ 7.16 µM) | 2 (≈ 3.58 µM) | 128 (≈ 229 µM) | 0.125 (≈ 0.224 µM) | 2 (≈ 3.58 µM) | 8 (≈ 14.3 µM)
2 | CCOC(=O)c1c(-c2ccc(F)cc2)oc2ccc(OCCCCCCN3C(=O)/C(=N\OC)c4cc(F)ccc43)cc12 | 0.125 (≈ 0.217 µM) | 2 (≈ 3.47 µM) | 4 (≈ 6.94 µM) | 73 | 1 (≈ 1.73 µM) | 0.25 (≈ 0.434 µM) | 0.218 (≈ 0.378 µM) | 0.5 (≈ 0.867 µM) | 0.125 (≈ 0.217 µM) | 0.25 (≈ 0.434 µM) | 2 (≈ 3.47 µM) | 2 (≈ 3.47 µM) | 1 (≈ 1.73 µM) | 16 (≈ 27.7 µM) | 0.25 (≈ 0.434 µM) | 8 (≈ 13.9 µM) | 8 (≈ 13.9 µM)
3 | CCOC(=O)c1c(-c2ccccc2)oc2ccc(OCCCN3C(=O)/C(=N\OC)c4cc(OC)ccc43)cc12 | 2 (≈ 3.78 µM) | 0.5 (≈ 0.946 µM) | 2 (≈ 3.78 µM) | > 4000 | 1 (≈ 1.89 µM) | 0.5 (≈ 0.946 µM) | < 0.016 | 0.125 (≈ 0.236 µM) | 0.5 (≈ 0.946 µM) | 0.5 (≈ 0.946 µM) | 1 (≈ 1.89 µM) | 1 (≈ 1.89 µM) | 4 (≈ 7.57 µM) | 64 (≈ 121 µM) | 2 (≈ 3.78 µM) | 0.5 (≈ 0.946 µM) | 16 (≈ 30.3 µM)
4 | CCO/N=C1\C(=O)N(CCCOc2ccc3oc(-c4ccc(OC)cc4)c(C(=O)OCC)c3c2)c2ccccc21 | 2 (≈ 3.69 µM) | 1 (≈ 1.84 µM) | 2 (≈ 3.69 µM) | > 8000 | 4 (≈ 7.37 µM) | 4 (≈ 7.37 µM) | < 0.016 | 0.5 (≈ 0.922 µM) | 2 (≈ 3.69 µM) | 1 (≈ 1.84 µM) | 4 (≈ 7.37 µM) | 8 (≈ 14.7 µM) | 4 (≈ 7.37 µM) | 16 (≈ 29.5 µM) | 1 (≈ 1.84 µM) | 8 (≈ 14.7 µM) | 16 (≈ 29.5 µM)
5 | CCO/N=C1\C(=O)N(CCCCOc2ccc3oc(-c4ccc(OC)cc4)c(C(=O)OCC)c3c2)c2ccccc21 | 2 (≈ 3.59 µM) | 2 (≈ 3.59 µM) | 0.5 (≈ 0.898 µM) | > 4000 | 4 (≈ 7.19 µM) | 1 (≈ 1.8 µM) | < 0.016 | 1 (≈ 1.8 µM) | 2 (≈ 3.59 µM) | 0.5 (≈ 0.898 µM) | 2 (≈ 3.59 µM) | 1 (≈ 1.8 µM) | 1 (≈ 1.8 µM) | 64 (≈ 115 µM) | 2 (≈ 3.59 µM) | 2 (≈ 3.59 µM) | 64 (≈ 115 µM)
6 | CCOC(=O)c1c(-c2ccc(OC)cc2)oc2ccc(OCCCCCN3C(=O)/C(=N\OC)c4cc(F)ccc43)cc12 | 0.06 (≈ 0.104 µM) | 0.5 (≈ 0.87 µM) | 1 (≈ 1.74 µM) | > 2000 | 1 (≈ 1.74 µM) | 2 (≈ 3.48 µM) | < 0.016 | 0.125 (≈ 0.218 µM) | 0.125 (≈ 0.218 µM) | 0.5 (≈ 0.87 µM) | 1 (≈ 1.74 µM) | 4 (≈ 6.96 µM) | 2 (≈ 3.48 µM) | 32 (≈ 55.7 µM) | 0.125 (≈ 0.218 µM) | 4 (≈ 6.96 µM) | 16 (≈ 27.8 µM)
7 | CCO/N=C1\C(=O)N(CCCCCOc2ccc3oc(-c4ccc(OC)cc4)c(C(=O)OCC)c3c2)c2ccc(F)cc21 | 0.25 (≈ 0.425 µM) | 4 (≈ 6.8 µM) | 8 (≈ 13.6 µM) | 1030 | 4 (≈ 6.8 µM) | 0.25 (≈ 0.425 µM) | 0.031 (≈ 0.0527 µM) | 0.125 (≈ 0.212 µM) | 0.125 (≈ 0.212 µM) | 1 (≈ 1.7 µM) | 4 (≈ 6.8 µM) | 8 (≈ 13.6 µM) | 4 (≈ 6.8 µM) | 32 (≈ 54.4 µM) | 0.5 (≈ 0.849 µM) | 4 (≈ 6.8 µM) | 32 (≈ 54.4 µM)
8 | CCOC(=O)c1c(-c2ccccc2)oc2ccc(OCCCN3C(=O)/C(=N\OC)c4ccccc43)cc12 | 0.5 (≈ 1 µM) | 0.5 (≈ 1 µM) | 1 (≈ 2.01 µM) | > 2000 | 1 (≈ 2.01 µM) | 2 (≈ 4.01 µM) | < 0.016 | 0.25 (≈ 0.501 µM) | 0.5 (≈ 1 µM) | 0.125 (≈ 0.251 µM) | 1 (≈ 2.01 µM) | 8 (≈ 16 µM) | 2 (≈ 4.01 µM) | 64 (≈ 128 µM) | 0.25 (≈ 0.501 µM) | 0.5 (≈ 1 µM) | 8 (≈ 16 µM)
9 | CCOC(=O)c1c(-c2ccc(OC)cc2)oc2ccc(OCCCCCCN3C(=O)C(=O)c4cc(F)ccc43)cc12 | 0.125 (≈ 0.223 µM) | 1 (≈ 1.79 µM) | 4 (≈ 7.15 µM) | > 64000 | 2 (≈ 3.57 µM) | 0.5 (≈ 0.894 µM) | < 0.016 | 0.125 (≈ 0.223 µM) | 1 (≈ 1.79 µM) | 1 (≈ 1.79 µM) | 4 (≈ 7.15 µM) | 2 (≈ 3.57 µM) | 2 (≈ 3.57 µM) | 1020 (≈ 1830 µM) | 0.25 (≈ 0.447 µM) | 8 (≈ 14.3 µM) | 16 (≈ 28.6 µM)
10 | CN[C@H](CC(C)C)C(=O)N[C@H]1C(=O)N[C@@H](CC(N)=O)C(=O)N[C@H]2C(=O)N[C@H]3C(=O)N[C@H](C(=O)N[C@H](C(=O)O)c4cc(O)cc(O)c4-c4cc3ccc4O)[C@H](O)c3ccc(c(Cl)c3)Oc3cc2cc(c3O[C@@H]2O[C@H](CO)[C@@H](O)[C@H](O)[C@H]2O[C@H]2C[C@](C)(N)[C@H](O)[C@H](C)O2)Oc2ccc(cc2Cl)[C@H]1O [VANCOMYCIN] |  |  |  |  | 4 (≈ 2.76 µM) |  |  |  |  | 1 (≈ 0.69 µM) |  | 0.5 (≈ 0.345 µM) | 1 (≈ 0.69 µM) |  |  | 1 (≈ 0.69 µM) | 1 (≈ 0.69 µM)
